In patent US20080081814A1, “Carbonyl Compounds Which Can be Used as Inhibitors of Coagulation Factor Xa” (priority 2004, published 2008):

Biological target: factor Xa (Homo sapiens, UniProt P00742)
Assay: Factor Xa inhibition (FXa-IC50)
Format: biochemical
Excerpt: The inhibition of factor Xa by the compounds according to the invention and the measurement of the anticoagulant and antithrombotic activity can be determined by conventional in-vitro or in-vivo methods. A suitable method is described, for example, by J. Hauptmann et al. in Thrombosis and Haemostasis 1990, 63, 220-223.
The inhibition of factor Xa can be measured, for example by the method of T. Hara et al. in Thromb. Haemostas. 1994, 71, 314-319.

Sequence of factor Xa (P00742 235-488 limits assumed): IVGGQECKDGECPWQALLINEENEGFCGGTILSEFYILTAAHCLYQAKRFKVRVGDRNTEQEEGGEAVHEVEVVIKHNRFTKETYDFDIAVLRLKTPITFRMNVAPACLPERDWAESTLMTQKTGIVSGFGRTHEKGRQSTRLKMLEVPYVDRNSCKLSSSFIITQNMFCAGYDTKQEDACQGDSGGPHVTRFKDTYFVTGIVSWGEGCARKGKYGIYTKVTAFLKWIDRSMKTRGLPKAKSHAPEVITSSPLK
Sequence of factor Xa (P00742 41-179 partner limits assumed): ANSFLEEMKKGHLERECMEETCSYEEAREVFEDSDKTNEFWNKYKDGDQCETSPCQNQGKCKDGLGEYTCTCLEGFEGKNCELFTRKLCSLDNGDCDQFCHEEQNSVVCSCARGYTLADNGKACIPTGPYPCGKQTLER

CCOC(=O)O[C@@H]1C[C@H](C(=O)Nc2ccc(N3CCOCC3=O)cc2)N(C(=O)Nc2ccc(Cl)cc2)C1 [Compound A1, N-1-(4-chlorophenyl)-4-(ethoxycarbonyloxy)-N-2-[4-(3-oxomorpholin-4-yl)phenyl)-(2R,4R)-pyrrolidine-1,2-dicarboxamide]
IC50: 2 nM
